Data from patent publication US11001590B2, “Pyrazolopyrimidine derivatives” (BAYER ANIMAL HEALTH GMBH, priority 2016, dated 2021).

Experiments:
Cooperia curticei = assay: In vitro assay 5: Cooperia curticei (COOPCU), larval mortality; details: 120 h, read-out: activity (percentage of larval mortality)
Protocol: In Vitro Assay 5: Cooperia curticei (COOPCU)
Solvent: Dimethyl Sulfoxide
Approximately 40 nematode larvae (Cooperia curticei) are transferred into a test tube containing the compound solution.
After 5 days percentage of larval mortality is recorded. 100% efficacy means all larvae are killed; 0% efficacy means no larvae are killed.

[1] = log P by HPLC on reversed phase columns (Method L0; [a] acidic, [b] neutral range)
Protocol: Calibration was done with straight-chain alkan-2-ones (with 3 to 16 carbon atoms) with known log P values (measurement of log P values using retention times with linear interpolation between successive alkanones). Lambda-max-values were determined using UV-spectra from 200 nm to 400 nm and the peak values of the chromatographic signals.

[2] = test system: Litomosoides sigmodontis third-stage larvae; assay: In vitro assay 7: Litomosoides sigmodontis L3 (LTMOSI), motility; details: 72 h, reduction of motility vs negative control, 72 h incubation
Protocol: In Vitro Assay 7: Litomosoides Siqmodontis L3 (LTMOSI)
10 Litomosoides sigmodontis third-stage larvae, which were freshly isolated from the pleural cavity of an infected rodent, were added to wells of a microtitre plate containing a nutrient medium and the test compound in DMSO. Compounds were tested in concentration-response assay in duplicate. Larvae exposed to DMSO and no test compounds were used as negative controls. Larvae were evaluated after 72 h of incubation with the compound. Efficacy was determined as the reduction of motility in comparison to the negative control. Based on the evaluation of a wide concentration range, concentration-response curves as well as ECso-values were calculated.

C. elegans Slo-1a = C. elegans Slo-1a (Caenorhabditis elegans, UniProt Q95V25); assay: In vitro assay 1: C. elegans Slo-1a, action at a recombinant C. elegans CHO cell line (membrane potential measurement)
C. elegans Slo-1a, sequence (Q95V25 whole entry): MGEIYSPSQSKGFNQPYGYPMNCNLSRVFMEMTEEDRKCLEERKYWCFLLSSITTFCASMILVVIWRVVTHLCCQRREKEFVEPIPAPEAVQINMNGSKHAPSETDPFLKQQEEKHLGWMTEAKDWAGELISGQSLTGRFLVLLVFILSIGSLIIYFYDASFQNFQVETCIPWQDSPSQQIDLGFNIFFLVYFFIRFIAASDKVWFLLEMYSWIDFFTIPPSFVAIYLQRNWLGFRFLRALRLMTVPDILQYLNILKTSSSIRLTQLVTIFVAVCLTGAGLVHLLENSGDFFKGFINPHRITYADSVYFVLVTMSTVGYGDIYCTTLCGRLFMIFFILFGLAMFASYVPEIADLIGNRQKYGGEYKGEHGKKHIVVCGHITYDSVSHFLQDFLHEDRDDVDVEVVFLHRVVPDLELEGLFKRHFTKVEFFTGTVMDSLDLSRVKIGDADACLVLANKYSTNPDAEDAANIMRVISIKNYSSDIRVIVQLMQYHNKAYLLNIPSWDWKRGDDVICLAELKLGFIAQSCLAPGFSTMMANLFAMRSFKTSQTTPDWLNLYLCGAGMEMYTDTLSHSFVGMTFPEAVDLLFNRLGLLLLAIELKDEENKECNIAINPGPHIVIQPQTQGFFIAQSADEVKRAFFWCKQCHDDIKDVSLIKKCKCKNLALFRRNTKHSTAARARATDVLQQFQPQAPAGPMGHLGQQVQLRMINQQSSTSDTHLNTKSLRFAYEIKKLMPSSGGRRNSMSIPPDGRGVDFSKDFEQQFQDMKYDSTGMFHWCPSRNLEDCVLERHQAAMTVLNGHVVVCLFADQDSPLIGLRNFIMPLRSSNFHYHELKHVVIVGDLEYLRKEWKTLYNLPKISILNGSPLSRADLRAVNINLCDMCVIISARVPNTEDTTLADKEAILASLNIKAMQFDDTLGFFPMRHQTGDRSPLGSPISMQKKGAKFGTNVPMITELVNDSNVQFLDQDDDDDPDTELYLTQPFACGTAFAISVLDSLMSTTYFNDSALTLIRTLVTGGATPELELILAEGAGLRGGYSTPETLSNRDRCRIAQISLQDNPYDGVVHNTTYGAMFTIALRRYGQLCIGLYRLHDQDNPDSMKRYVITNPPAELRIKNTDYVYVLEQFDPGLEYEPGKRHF

[3] = test system: Dirofilaria immitis microfilariae; assay: In vitro assay 3: Dirofilaria immitis microfilariae (DIROIM L1), motility; details: 72 h, reduction of motility vs negative control, 72 h incubation
[4] = test system: Nippostrongylus brasiliensis; assay: In vitro assay 2: Nippostrongylus brasiliensis (NIPOBR), acetylcholine esterase readout; details: adult worms, read-out: activity (reduction of AChE compared to negative control); for inhibition at 10 µg/mL: 10 μg/ml (10 ppm); for inhibition at 1 µg/mL: 1 μg/ml (1 ppm)
Protocol: In Vitro Assay 2: Nippostronqylus Brasiliensis (NIPOBR)
Adult Nippostrongylus brasiliensis were washed with saline buffer containing 100 U/ml penicillin, 0.1 mg/ml streptomycin and 2.5 μg/ml amphotericin B. Test compounds were dissolved in DMSO and worms were incubated in medium in a final concentration of 10 μg/ml (10 ppm) respectively 1 μg/ml (1 ppm). An aliquot of the medium was used to determine the acetylcholine esterase activity in comparison to a negative control. The principle of measuring acetylcholine esterase as readout for anthelmintic activity was described in Rapson et al (1986) and Rapson et al (1987).

[5] = test system: Dirofilaria immitis third-stage larvae; assay: In vitro assay 4: Dirofilaria immitis (DIROIM L4), motility of larvae; details: 72 h

| SMILES | mortality at 20 ppm (Cooperia curticei) [%] | chromatographic logP [1] | EC50 [2] [µg/mL] | EC50 (C. elegans Slo-1a) [nM] | EC50 [3] [µg/mL] | inhibition at 10 µg/mL [4] [%] | EC50 [5] [µg/mL] | inhibition at 1 µg/mL [4] [%] |
| --- | --- | --- | --- | --- | --- | --- | --- | --- |
| Cc1nn2c(C(C)C)c(C(=O)N[C@H]3CCOc4ccccc43)cnc2c1-c1cccc(C(F)(F)F)c1 [Example 6] | 80 | 5.03 | < 1 | 12.6 | < 1 | – | – | – |
| Cc1nn2c(C(C)C)c(C(=O)N[C@H]3CCOc4ccccc43)cnc2c1-c1ccc(F)c(Cl)c1 [Example 186] | – | 5.01 | < 0.1 | 15.8 | < 0.1 | > 80 | < 0.1 | – |
| Cc1nn2c(C(C)C)c(C(=O)N[C@H]3CCOc4ccccc43)cnc2c1-c1cccc(Cl)c1F [Example 189] | – | 4.72 | < 0.1 | 1.26 | < 0.1 | > 80 | < 0.1 | – |
| Cc1nn2c(C(C)C)c(C(=O)N[C@H]3CCOc4ccccc43)cnc2c1-c1cc(Cl)c(F)c(Cl)c1 [Example 194] | – | 5.65 | < 0.1 | 12.6 | < 0.1 | > 80 | < 0.1 | > 80 |
| Cc1nn2c(C(C)C)c(C(=O)N[C@H]3CCOc4ccccc43)cnc2c1-c1ncc(Cl)cc1Cl [Example 208] | – | 4.27 | < 0.1 | 1.58 | < 0.1 | > 80 | < 0.1 | > 80 |
| Cc1nn2c(C(C)C)c(C(=O)N[C@H]3CCOc4ccccc43)cnc2c1-c1ccc(F)c(Cl)c1F [Example 213] | – | 4.8 | < 0.1 | 1.58 | < 0.1 | > 80 | < 0.1 | – |
| COc1ccc(F)c(-c2c(C)nn3c(C(C)C)c(C(=O)N[C@H]4CCOc5ccccc54)cnc23)c1F [Example 232] | 80 | 4.04 | < 0.1 | 5.01 | < 1 | > 80 | < 0.1 | – |
| Cc1nn2c(C(C)C)c(C(=O)N[C@H]3CCOc4ccccc43)cnc2c1-c1c(F)cc(F)cc1F [Example 236] | – | 4.3 | < 0.1 | 2 | < 1 | > 80 | < 0.1 | > 80 |
| Cc1nn2c(C(C)C)c(C(=O)N[C@H]3CCOc4ccccc43)cnc2c1-c1cc(Cl)cc(C(F)(F)F)c1 [Example 240] | 90 | 5.65 | – | 5.01 | < 1 | > 80 | – | > 80 |
| COc1cc(-c2c(C)nn3c(C(C)C)c(C(=O)N[C@H]4CCOc5ccccc54)cnc23)cc(F)c1F [Example 241] | – | 4.6 | < 0.1 | 6.31 | < 1 | > 80 | < 0.1 | > 80 |
| COc1cc(-c2c(C)nn3c(C(C)C)c(C(=O)N[C@H]4CCOc5ccccc54)cnc23)ccc1F [Example 244] | 90 | 4.32 | < 0.1 | 6.31 | < 1 | > 80 | < 0.1 | > 80 |
| Cc1nn2c(C(C)C)c(C(=O)N[C@H]3CCOc4ccccc43)cnc2c1-c1c(F)cc(Cl)cc1F [Example 246] | – | 4.82 | < 0.1 | 6.31 | < 0.1 | > 80 | < 0.1 | > 80 |
| Cc1nn2c(C(C)C)c(C(=O)N[C@H]3CCOc4ccccc43)cnc2c1-c1c(Cl)ccc(F)c1F [Example 258] | – | 4.46 | < 0.1 | 1.58 | < 1 | > 80 | < 0.1 | > 80 |
| Cc1nn2c(C(C)C)c(C(=O)N[C@H]3CCc4ccccc43)cnc2c1-c1cc(Cl)cc(Cl)c1F [Example 261] | 80 | 5.65 | – | 1.58 | < 0.1 | > 80 | < 0.1 | > 80 |
| Cc1nn2c(C(C)C)c(C(=O)N[C@H]3CCOc4ccccc43)cnc2c1-c1cc(Cl)cc(Cl)c1F [Example 262] | 90 | 5.36 | < 0.1 | 0.501 | < 0.1 | > 80 | < 0.1 | > 80 |
| Cc1nn2c(C(C)C)c(C(=O)N[C@H]3CCc4ccccc43)cnc2c1-c1cccc(N(C)C)c1 [Example 299] | 80 | 3.9 | – | 15.8 | < 0.1 | – | – | – |
| Cc1nn2c(C(C)C)c(C(=O)N[C@H]3CCc4ccccc43)cnc2c1-c1cc(Cl)cc(C(F)(F)F)c1 [Example 317] | – | 6.07 | < 0.1 | 15.8 | < 1 | > 80 | < 0.1 | – |
| COc1cc(Cl)cc(-c2c(C)nn3c(C(C)C)c(C(=O)N[C@H]4CCOc5ccccc54)cnc23)c1 [Example 403] | – | 4.96 | < 0.1 | 158 | < 0.1 | > 80 | < 0.1 | – |
| Cc1nn2c(C3CC3)c(C(=O)N[C@H]3CCc4ccccc43)cnc2c1-c1c(F)cccc1Cl [Example 442] | – | 3.89 | < 0.1 | 2 | < 0.1 | > 80 | < 0.1 | – |
| Cc1nn2c(C3CC3)c(C(=O)N[C@H]3CCOc4ccccc43)cnc2c1-c1cccc(N(C)C)c1 [Example 453] | 80 | 2.72 | – | 2.51 | < 1 | > 80 | – | – |
| Cc1nn2c(C3CC3)c(C(=O)N[C@H]3CCOc4ccccc43)cnc2c1-c1c(Cl)cccc1Cl [Example 467] | – | 3.88 | < 0.1 | 0.398 | < 0.1 | > 80 | < 0.1 | – |
| Cc1nn2c(C3CC3)c(C(=O)N[C@H]3CCOc4ccccc43)cnc2c1-c1cccc(Cl)c1Cl [Example 473] | 90 | 4.07 | < 0.1 | 0.501 | < 0.1 | > 80 | < 0.1 | > 80 |
| Cc1nn2c(C3CC3)c(C(=O)N[C@H]3CCOc4ccccc43)cnc2c1-c1ccc(F)cc1Cl [Example 475] | – | 3.79 | < 0.1 | 2 | < 0.1 | – | < 0.1 | > 80 |
| COc1c(F)ccc(-c2c(C)nn3c(N4CCOCC4)c(C(=O)N[C@H]4CCOc5ccccc54)cnc23)c1F [Example 533] | – | 4.46 | < 0.1 | 1.26 | < 0.1 | – | < 0.1 | > 80 |
| Cc1nn2c(C3CC3)c(C(=O)N[C@H]3CCOc4ccccc43)cnc2c1-c1cc(Cl)cc(Cl)c1Cl [Example 538] | – | 4.8 | < 0.1 | 0.316 | < 0.1 | – | < 0.1 | > 80 |
